Results on 5 molecules are retold here after patent US11470846B2, “Herbicidal pyridino-/pyrimidino-thiazoles” (SYNGENTA PARTICIPATIONS AG, priority 2014, dated 2022).

Each structure is given as a SMILES string.

Common to all, as to type: in vivo
The test system of assay [1] is Abutilon theophrasti (ABUTH). In words: Pre-emergence herbicidal activity. The note with it: pre-emergence application, 1000 g/Ha, evaluated after 13 days, scale 0-5. The gist of the method: (§1)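 Seeds sown in standard soil, sprayed one day after sowing with active ingredient formulated in acetone/water (50:50) with 0.5% Tween 20. Glasshouse at 24/16 °C day/night, 14 h light, 65% humidity, watered twice daily; damage scored after 13 days on a 0–5 scale (5 = total damage).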

For assay [2], the system named is Amaranthus retroflexus (AMARE). The assay can be described thus: Pre-emergence herbicidal activity. The note with it: pre-emergence application, 1000 g/Ha, evaluated after 13 days, scale 0-5. The gist of the method:
as §1

Assay [3] deals with Echinochloa crus-galli (ECHCG). The assay can be described thus: Pre-emergence herbicidal activity. The settings on record: pre-emergence application, 1000 g/Ha, evaluated after 13 days, scale 0-5. The gist of the method: as §1
Assay [4] deals with Lolium perenne (LOLPE). The assay can be described thus: Pre-emergence herbicidal activity. The note with it: pre-emergence application, 1000 g/Ha, evaluated after 13 days, scale 0-5. Put shortly:
as §1

Assay [5] has as its system Setaria faberi (SETFA). The assay can be described thus: Pre-emergence herbicidal activity. The note with it: pre-emergence application, 1000 g/Ha, evaluated after 13 days, scale 0-5. Put shortly:
as §1

The test system of assay [6] is Zea Mays (ZEAMX). The assay can be described thus: Pre-emergence herbicidal activity. The settings on record: pre-emergence application, 1000 g/Ha, evaluated after 13 days, scale 0-5. Put shortly:
as §1

In assay [7] the test system is Abutilon theophrasti (ABUTH). The assay can be described thus: Post-emergence herbicidal activity. The note with it: post-emergence application, 1000 g/Ha, evaluated after 13 days, scale 0-5. Put shortly:
(§2)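 Visual injury rating (0 = unaffected, 5 = totally damaged) taken 13 days post-treatment. Treatment: spray of acetone/water (50:50), 0.5% Tween 20 formulation applied to plants 8 days after sowing, with glasshouse conditions of 24/16 °C and 65% humidity throughout.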

Assay [8] concerns Amaranthus retroflexus (AMARE). In words: Post-emergence herbicidal activity. The settings on record: post-emergence application, 1000 g/Ha, evaluated after 13 days, scale 0-5. The gist of the method: as §2
The subject of assay [9] is Echinochloa crus-galli (ECHCG). The assay can be described thus: Post-emergence herbicidal activity. The note with it: post-emergence application, 1000 g/Ha, evaluated after 13 days, scale 0-5. The gist of the method: as §2
Assay [10] concerns Lolium perenne (LOLPE). In words: Post-emergence herbicidal activity. The note with it: post-emergence application, 1000 g/Ha, evaluated after 13 days, scale 0-5. Put shortly:
as §2

Assay [11] relates to Setaria faberi (SETFA). The assay can be described thus: Post-emergence herbicidal activity. The note with it: post-emergence application, 1000 g/Ha, evaluated after 13 days, scale 0-5. Put shortly:
as §2

In assay [12] the test system is Zea Mays (ZEAMX). In words: Post-emergence herbicidal activity. The note with it: post-emergence application, 1000 g/Ha, evaluated after 13 days, scale 0-5. The gist of the method: as §2
Assay [13] has as its system Alopecurus myosuroides (ALOMY). The assay can be described thus: Pre-emergence herbicidal activity. The note with it: pre-emergence application, 1000 g/Ha, evaluated after 13 days, scale 0-5. The gist of the method: as §1
Assay [14] concerns Avena fatua (AVEFA). The assay can be described thus: Pre-emergence herbicidal activity. The settings on record: pre-emergence application, 1000 g/Ha, evaluated after 13 days, scale 0-5. Put shortly: as §1
The test system of assay [15] is Oryza sativa (ORYSA). In words: Pre-emergence herbicidal activity. The note with it: pre-emergence application, 1000 g/Ha, evaluated after 13 days, scale 0-5. The gist of the method:
as §1

In assay [16] the test system is Triticum aestivium (TRZAW). The assay can be described thus: Pre-emergence herbicidal activity. The note with it: pre-emergence application, 1000 g/Ha, evaluated after 13 days, scale 0-5. The gist of the method: as §1
For assay [17], the system named is Alopecurus myosuroides (ALOMY). In words: Post-emergence herbicidal activity. The note with it: post-emergence application, 1000 g/Ha, evaluated after 13 days, scale 0-5. Put shortly:
as §2

Assay [18] relates to Avena fatua (AVEFA). The assay can be described thus: Post-emergence herbicidal activity. The settings on record: post-emergence application, 1000 g/Ha, evaluated after 13 days, scale 0-5. The gist of the method: as §2
Assay [19] relates to Oryza sativa (ORYSA). In words: Post-emergence herbicidal activity. The note with it: post-emergence application, 1000 g/Ha, evaluated after 13 days, scale 0-5. Put shortly: as §2
The subject of assay [20] is Triticum aestivium (TRZAW). In words: Post-emergence herbicidal activity. The note with it: post-emergence application, 1000 g/Ha, evaluated after 13 days, scale 0-5. Put shortly:
as §2

Regarding `C#CC(C)OC(=O)N(C)c1sc(-c2cccnc2)nc1C` (stereo not drawn) [Compound B2, 1-methylprop-2-ynyl N-methyl-N-[4-methyl-2-(3-pyridyl)thiazol-5-yl]carbamate], the results for the “Control of weed species, ABUTH (damage score)” value (“Control of weed species, ABUTH” below) in assay [1] and in [7] were 3 and 2, respectively. The “Control of weed species, AMARE (damage score)” value (“Control of weed species, AMARE” below) was found to be 3 in [2] and 2 in assay [8]. Also, the “Control of weed species, ECHCG (damage score)” value (“Control of weed species, ECHCG” below) in assay [3] (Table 6) turned out to be 1; in assay [9] (Table 8), 2. Besides, the entries for the “Control of weed species, LOLPE (damage score)” value (“Control of weed species, LOLPE” below) in the assay on Lolium perenne (LOLPE) [4] (Table 6) and in the assay on Lolium perenne (LOLPE) [10] (Table 8) were 3 and 4, respectively. The “Control of weed species, SETFA (damage score)” value (“Control of weed species, SETFA” below) in the assay on Setaria faberi (SETFA) [5] and in the assay on Setaria faberi (SETFA) [11] was 5 each time. In addition, the “Control of weed species, ZEAMX (damage score)” value (“Control of weed species, ZEAMX” below) with Zea Mays (ZEAMX) [6] came out at 5; with Zea Mays (ZEAMX) [12], 4.
`C#CCOC(=O)N(C)c1sc(-c2cccnc2)nc1C` [Compound B1, prop-2-ynyl N-methyl-N-[4-methyl-2-(3-pyridyl)thiazol-5-yl]carbamate]: the “Control of weed species, ABUTH” value is 2 in [1] and 1 in assay [7]. Also, the “Control of weed species, AMARE” value was 2 in assay [2] and 1 in [8]. Besides, the “Control of weed species, ECHCG” value is reported as 2 in assay [3] (Table 6) and 4 in assay [9] (Table 8). In addition, the “Control of weed species, LOLPE” value with Lolium perenne (LOLPE) [4] (Table 6) and in the assay on Lolium perenne (LOLPE) [10] (Table 8) was 3 each time. Moreover, the “Control of weed species, SETFA” value with Setaria faberi (SETFA) [5] and in the assay on Setaria faberi (SETFA) [11] was 5 in each case. Besides, the “Control of weed species, ZEAMX” value with Zea Mays (ZEAMX) [6] and in the assay with Zea Mays (ZEAMX) [12] was 5 each time.
In the case of `C#CC(C)(C)OC(=O)N(C)c1sc(-c2cccnc2)nc1C` [Compound B3, 1,1-dimethylprop-2-ynyl N-methyl-N-[4-methyl-2-(3-pyridyl)thiazol-5-yl]carbamate], the “Control of weed species, ABUTH” value in [1] worked out at 4; in assay [7], 1. The figures for the “Control of weed species, AMARE” value in [2] and in assay [8] were 3 and 2, respectively. Moreover, the “Control of weed species, ECHCG” value in [3] (Table 6) was 3; in assay [9] (Table 8) it was 4. In addition, the figures for the “Control of weed species, LOLPE” value with Lolium perenne (LOLPE) [4] (Table 6) and with Lolium perenne (LOLPE) [10] (Table 8) were 3 and 4, respectively. The “Control of weed species, SETFA” value with Setaria faberi (SETFA) [5] is 4; with Setaria faberi (SETFA) [11] it was 5. Further, the “Control of weed species, ZEAMX” value in the assay on Zea Mays (ZEAMX) [6] and in the assay on Zea Mays (ZEAMX) [12] was 5 throughout.
As for `Cc1nc(-c2cncc(OCc3ccccc3)c2)sc1N(C)C(=O)OC(C)(C)C` [Compound A14], the “Control of weed species, ALOMY (damage score)” value in assay [13] and in assay [17] was 0 each time. In addition, the “Control of weed species, AVEFA (damage score)” value with Avena fatua (AVEFA) [14] and in the assay with Avena fatua (AVEFA) [18] was 0 in each case. Also, the “Control of weed species, ECHCG” value in [3] (Table 5) is given as 0; in assay [9] (Table 7), 1. Further, the “Control of weed species, LOLPE” value is listed as 1 with Lolium perenne (LOLPE) [4] (Table 5) and 0 with Lolium perenne (LOLPE) [10] (Table 7). The “Control of weed species, ORYSA (damage score)” value with Oryza sativa (ORYSA) [15] and in the assay with Oryza sativa (ORYSA) [19] was 0 throughout. Besides, the “Control of weed species, TRZAW (damage score)” value in assay [16] amounted to 1; in assay [20], 0.
As for `Cc1nc(-c2cncnc2)sc1N(C)C(=O)OC(C)(C)C` [Compound A2, tert-butyl N-methyl-N-(4-methyl-2-pyrimidin-5-yl-thiazol-5-yl)carbamate], the “Control of weed species, ALOMY (damage score)” value in [13] was determined as 0; in [17] it was 1. The figures for the “Control of weed species, AVEFA (damage score)” value in the assay on Avena fatua (AVEFA) [14] and in the assay with Avena fatua (AVEFA) [18] were 3 and 5, respectively. The “Control of weed species, ECHCG” value in [3] (Table 5) and in [9] (Table 7) was 5 each time. Moreover, the results for the “Control of weed species, LOLPE” value in the assay with Lolium perenne (LOLPE) [4] (Table 5) and with Lolium perenne (LOLPE) [10] (Table 7) were 2 and 3, respectively. Also, the “Control of weed species, ORYSA (damage score)” value in the assay on Oryza sativa (ORYSA) [15] and in the assay with Oryza sativa (ORYSA) [19] was 1 in each case. The “Control of weed species, TRZAW (damage score)” value in assay [16] is 0; in assay [20], 1.
